In the data set the target is ATP-dependent translocase ABCB1 (Homo sapiens, UniProt P08183). The data set is described as follows: TP_TRANSPORTER: increase in Rhodamine 123 intracellular accumulation in AML-2/D100 cells. Type of data set: functional, cell-based.
ATP-dependent translocase ABCB1, sequence (P08183 whole entry): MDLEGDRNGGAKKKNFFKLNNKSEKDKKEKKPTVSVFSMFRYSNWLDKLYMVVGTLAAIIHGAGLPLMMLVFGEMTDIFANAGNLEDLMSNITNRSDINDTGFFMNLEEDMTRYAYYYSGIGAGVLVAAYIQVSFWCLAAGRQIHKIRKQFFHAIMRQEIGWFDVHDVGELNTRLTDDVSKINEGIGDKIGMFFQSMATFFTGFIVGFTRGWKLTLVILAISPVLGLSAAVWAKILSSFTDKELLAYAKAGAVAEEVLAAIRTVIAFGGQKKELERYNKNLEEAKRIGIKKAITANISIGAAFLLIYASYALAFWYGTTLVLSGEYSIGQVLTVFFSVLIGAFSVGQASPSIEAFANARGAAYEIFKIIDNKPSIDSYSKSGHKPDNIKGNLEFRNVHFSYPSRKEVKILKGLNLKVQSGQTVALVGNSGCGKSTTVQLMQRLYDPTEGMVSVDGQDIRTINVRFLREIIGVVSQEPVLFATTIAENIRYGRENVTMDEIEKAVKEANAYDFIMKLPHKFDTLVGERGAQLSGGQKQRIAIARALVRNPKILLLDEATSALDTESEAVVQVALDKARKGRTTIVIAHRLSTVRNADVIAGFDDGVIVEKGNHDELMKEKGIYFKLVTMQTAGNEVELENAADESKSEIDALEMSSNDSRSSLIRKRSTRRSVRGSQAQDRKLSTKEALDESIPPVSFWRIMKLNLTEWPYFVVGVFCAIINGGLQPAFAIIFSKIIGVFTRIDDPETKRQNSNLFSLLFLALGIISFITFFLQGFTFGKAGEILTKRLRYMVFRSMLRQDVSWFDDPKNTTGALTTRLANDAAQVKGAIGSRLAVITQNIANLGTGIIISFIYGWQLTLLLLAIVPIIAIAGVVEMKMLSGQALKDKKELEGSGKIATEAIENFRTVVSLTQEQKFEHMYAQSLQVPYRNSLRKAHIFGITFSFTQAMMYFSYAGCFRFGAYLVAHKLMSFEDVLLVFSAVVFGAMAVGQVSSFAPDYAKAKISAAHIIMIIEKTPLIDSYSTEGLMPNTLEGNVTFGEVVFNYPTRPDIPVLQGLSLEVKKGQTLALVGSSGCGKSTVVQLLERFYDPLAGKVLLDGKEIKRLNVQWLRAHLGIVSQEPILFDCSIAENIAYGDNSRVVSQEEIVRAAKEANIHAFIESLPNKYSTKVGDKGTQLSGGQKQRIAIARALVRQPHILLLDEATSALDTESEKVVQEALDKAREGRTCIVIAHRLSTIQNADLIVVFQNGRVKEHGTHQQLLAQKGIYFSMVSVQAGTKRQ

Take `COc1cc(OC)c2c(=O)cc(-c3cc(OC)c(OC)c(OC)c3)oc2c1`: the Activity result was “inhibitor [+]”.
